Where “and” joins values, the source holds several entries; their conditions need not be identical. Equal entries are not always repeated. Entries after “also recorded” stand apart in the source; their conditions may differ.
Tests used:
[1] = system: bitches suffering from urinary incontinence after spaying; assay: GnRH analogue slow release implant in bitches with urinary incontinence after spaying; type: in vivo, dog; details: for Side effects: dash = none
Procedure: Additionally, for a limited period the dogs were treated with phenylpropanolamine in a dosage of 1.5 mg/kg BW tid orally.
After discontinuation of the shortacting phenylpropanolamine 8 bitches remained continent. Their continence was therefore achieved solely by the treatment with the composition as described in the present invention. Seven out of fifteen dogs seemed to be much happier and in none of the dogs did the general condition deteriorate. […] The respective results are shown in more detail in table 1.

[2] = system: cocker spaniel bitches showing excessive growth of the undercoat due to spaying; assay: coat quality in spayed cocker spaniel bitches with excessive growth of the undercoat; type: in vivo, dog; details: 5 mg slow release s.c. implant
Procedure: Two cocker spaniel bitches belonging to the same owner were showing excessive growth of the undercoat due to spaying. […] Both dogs were first clinically examined and thereafter a GnRH analogue (Deslorelin) in a dosage of 5 mg, in slow release form, was subcutaneously implanted between the shoulder blades.

[3] = system: client owned dogs suffering from urinary incontinence; assay: double-blind, placebo-control study of long-acting GnRH analogue in incontinent dogs; type: in vivo, dog
Procedure: In a second ongoing study, 16 client owned dogs suffering from urinary incontinence were enrolled in a double-blind, placebo-control study. In the initial phase of the study, dogs were randomly assigned to treatment with a long-acting GnRH analogue (leuprolide acetate) or placebo (dog owners and the investigators were blinded to treatment) along with a short course of therapy with phenylpropanolamine. 5 weeks after treatment with drug or placebo, dogs were evaluated and, if not fully continent, treated with a long-acting GnRH analogue (leuprolide acetate) in an open label phase of the study. To date only 1 of 10 dogs treated with placebo became continent vs. […] treated with drug during the blinded portion of the study. Overall, the results generated thus far indicate […] dogs treated with the long-acting GnRH analogue became continent and […] improved after discontinuation of the short acting phenylpropanolamine. Only 1 dog of 15 treated with the GnRH analogue was considered not to have improved following treatment with the drug.

[4] = system: menopausal person suffering from stress incontinence; assay: 24 hour pad test in a menopausal person with stress incontinence; type: in vivo, human; details: single dose of 3.75 mg; 2 weeks after treatment; before treatment 10 to 130 ml daily
Procedure: A second menopausal person, suffering from stress incontinence for at least 6 years, was treated with a single dose of 3.75 mg of leuprolide acetate. 24 hour pad tests conducted prior to treatment with the drug indicated they lost between 10 and 130 ml of urine on a daily basis due to their incontinence.

[5] = system: perimenopausal person with urge incontinence and hotflushes; assay: treatment of a perimenopausal person with urge incontinence and hotflushes; type: in vivo, human; details: 3.75 mg; one person
[6] = 11.25 mg slow release s.c. implant, with PPA

## Buserelin acetate [Buserelinacetate]
[1]; 6.3 mg slow release s.c. implant
  Side effects: agile, more
[1]; 6.3 mg slow release s.c. implant, without PPA
  Duration of effect after treatment: 44 days and 83 days

## Deslorelin acetate [Deslorelinacetate]
[2]; 5 weeks after the injection, both dogs
  coat quality: obvious amelioration of the coat quality
[2]; 21 weeks after injection
  signs of baby coat: no signes of “baby coat” were apparent anymore
[1]; 6 mg slow release s.c. implant
  Side effects: agile, more; also recorded: More playfull
[1]; 6 mg slow release s.c. implant, with PPA (phenylpropanolamine)
  Effect on incontinence: 100%
[1]; 12 mg slow release s.c. implant
  Side effects: More self-; also recorded: More tolerant; also recorded: less aggres-
[1]; 12 mg slow release s.c. implant, with PPA
  Effect on incontinence: 80% and 100%

## CCNC(=O)[C@@H]1CCCN1C(=O)[C@H](CCCNC(=N)N)NC(=O)[C@H](CC(C)C)NC(=O)[C@@H](CC(C)C)NC(=O)[C@H](Cc1ccc(O)cc1)NC(=O)[C@H](CO)NC(=O)[C@H](Cc1c[nH]c2ccccc12)NC(=O)[C@H](Cc1c[nH]cn1)NC(=O)[C@@H]1CCC(=O)N1 [Leuprorelinacetate, Leuprolid acetate]
[3]; blinded portion, 5 weeks after treatment, with short course of phenylpropanolamine, placebo 1 of 10
  dogs that became continent: 3 to 8 dogs
[3]; overall, of 15 dogs treated
  dogs considered not to have improved: 1 dog
[3]; overall, of 15 dogs treated, after discontinuation of phenylpropanolamine
  dogs that became continent: 6 dogs
[3]; overall, of the remaining dogs, after discontinuation of phenylpropanolamine
  dogs that improved: 9 dogs
[4]
  daily urine loss (pad test): 1 mL
[1]; [6]
  Duration of effect after treatment: >64 days
  Effect on incontinence: 100%
[1]; 11.25 mg slow release s.c. implant, without PPA
  Duration of effect after treatment: 0 days
[1]; 11.25 mg slow release s.c. implant, without PPA, listed as Leuprorelin acetate
  Duration of effect after treatment: >14 days

## Triptorelin acetate [Triptorelinacetate]
[5]
  period of improvement of both symptoms: about 4 weeks
  urge incontinence and hotflushes, reported change: improved considerably
[1]; 3.75 mg slow release s.c. implant, 36 kg bitch, dose too low
  Effect on incontinence: Not effec-
[1]; 3.75 mg slow release s.c. implant, dose too low
  Duration of effect after treatment: 0

— patent US20090246209A1, “GNRH ANALOGUES FOR TREATMENT OF URINARY INCONTINENCE” (priority 2000, published 2009)
